Measurements taken from US20120122913A1, “COMBINATION OF CURCUMINOIDS AND MTOR INHIBITORS FOR THE TREATMENT OF TAUOPATHIES” (Institut National De La Recherche Scientifque, priority 2009, published 2012).

Assays:
[1] = test system: Tau protein; experiment: Total Tau protein level by Western blot in differentiated SH-SY5Y cells exposed to β-amyloid(1-42); format: cell-based, human; conditions: 48 h
Experimental: Chemical treatments were initiated and kept for 48 h.
On day 8, cells were observed under an inverted microscope to ensure that they are fully adherent and free of microbial contamination. On day 9, Petri dishes were used for Western Blot analyses. […] Cells were then removed with a cell scraper, transferred to a 0.6 ml microtube and kept on ice. Samples were sonicated for 30 seconds and mixed with a vortex for 5 seconds and the procedure was repeated once. Samples obtained were stored at −80 ° C. in aliquots of 20 μl. For SDS-PAGE analysis, samples (20 μl) were mixed with 7.34 μl of 4× SDS gel loading buffer (200 mM Tris-HCl, pH 6.8, 8% SDS, 20% Glycerol, 0.4% bromophenol blue and 400 mM β-mercaptoethanol) and 2 μl of cell lysing buffer, boiled for 10 min, cooled on ice, spun on a microcentrifuge and transferred to wells of an electrophoresis apparatus containing a 4% acrylamide stacking gel and a 8% acrylamide resolving gel. Electrophoresis protein separation was performed overnight using a constant current (40 V). Proteins were transferred to nitrocellulose by electro-blotting in a 20% methanol-transfer buffer with a constant 900 mA current for 90 min. Ponceau Red staining was performed to evaluate the quality of loading and transfer. […] The membrane was then washed 4 times for 5 min each time with TBS-0.1% Tween™, and soaked with the chemiluminescence substrate (Enhanced Luminol™ from PerkinElmer). X-Ray films were exposed to the membranes long enough to optimize each band detection. Band Intensity was quantified using a Fluor-S Multimager™ (Bio-Rad scanner) and the Quantity One™ software (Bio-Rad) and data adjusted with local background.

[2] = test system: differentiated SH-SY5Y cells; experiment: MTT cell viability assay in differentiated SH-SY5Y cells exposed to β-amyloid(1-42); conditions: 48 h
Experimental: For the cytotoxicity assay, 48 well-plates were seeded with 180,000 cells and 500 μl of culture medium was added. Five Petri dishes (or 6-well plates) were prepared for each treatment. […] On day 7, the culture medium was removed and changed with a medium free of retinoic acid and FBS, but containing 2 nM of BDNF (Sigma Cat. No. B3795), from a 2 μM master solution in filtered sterile water). Chemical treatments were initiated and kept for 48 h. […] The Human Beta Amyloid (Aβ(1-42), Chemicon Cat. No. AG972) solution was prepared according to the manufacturer's instructions. […] The solution was subsequently diluted in serum-deprived culture medium containing BDNF (2 nM final concentration) to obtain either a 5 nM or 5 μM Aβ(1-42) final concentration.
In parallel, on day 9, plates were used for the MTT cell viability assay. A volume of 62.5 μl of a 3-(4,5-Dimethylthiazol-2-yl)-2,5-diphenyltetrazolium bromide (MTT) solution (5 mg/ml in a 1:1 PBS/culture medium) was added, then plates were incubated for 4 h. A volume of 312.5 μl of isopropanol—0.1N HCl was added, then for each well the content was mixed using a pipette (wide bore tip) to solubilize the product. The optical density at 560 nm, which is proportional to the number of living cells, was measured (reference at 690 nm).

## CO[C@H]1C[C@@H]2CC[C@@H](C)[C@@](O)(O2)C(=O)C(=O)N2CCCC[C@H]2C(=O)O[C@H]([C@H](C)C[C@@H]2CC[C@@H](OC(=O)C(C)(CO)CO)[C@H](OC)C2)CC(=O)[C@H](C)/C=C(\C)[C@@H](O)[C@@H](OC)C(=O)[C@H](C)C[C@H](C)/C=C/C=C/C=C/1C [Temsirolimus]
[1]; 2 nM Temsirolimus, 5 nM human β-amyloid(1-42), FIG. 5
  reduction in the total amount of Tau protein as compared to controls: 5.3%
[2]; 2 nM Temsirolimus, 5 nM β-amyloid(1-42), FIG. 6
  cytotoxicity (cell viability, MTT): none of these three treatments were cytotoxic

## COc1cc(/C=C/C(=O)CC(=O)/C=C/c2ccc(O)c(OC)c2)ccc1O [curcumin, (E,E)-1,7-bis(4-Hydroxy-3-methoxyphenyl)-1,6-heptadiene-3,5-dione]
[1]; 10 μM curcumin, 5 μM human β-amyloid(1-42), FIG. 3
  reduction in the total amount of Tau protein as compared to controls: 0.5%
[1]; 15 μM curcumin, 5 nM human β-amyloid(1-42), FIG. 5
  reduction in the total amount of Tau protein as compared to controls: 6.7%
[1]; 20 μM curcumin, 5 nM human β-amyloid(1-42), FIG. 1
  reduction in the total amount of Tau protein as compared to controls: 2.1%
[2]; 10 μM curcumin, 5 μM β-amyloid(1-42), FIG. 4
  cytotoxicity (cell viability, MTT): none of these three treatments were cytotoxic
[2]; 15 μM curcumin, 5 nM β-amyloid(1-42), FIG. 6
  cytotoxicity (cell viability, MTT): none of these three treatments were cytotoxic
[2]; 20 μM curcumin, 5 nM β-amyloid(1-42), FIG. 2
  cytotoxicity (cell viability, MTT): none of these three treatments were cytotoxic

## CO[C@H]1C[C@@H]2CC[C@@H](C)[C@@](O)(O2)C(=O)C(=O)N2CCCC[C@H]2C(=O)O[C@H]([C@H](C)C[C@@H]2CC[C@@H](OCCO)[C@H](OC)C2)CC(=O)[C@H](C)/C=C(\C)[C@@H](O)[C@@H](OC)C(=O)[C@H](C)C[C@H](C)/C=C/C=C/C=C/1C [Everolimus]
[1]; 1 nM Everolimus, 5 μM human β-amyloid(1-42), FIG. 3
  reduction in the total amount of Tau protein as compared to controls: 17.2%
[1]; 2 nM Everolimus, 5 nM human β-amyloid(1-42), FIG. 1
  reduction in the total amount of Tau protein as compared to controls: 18.7%
[2]; 1 nM Everolimus, 5 μM β-amyloid(1-42), FIG. 4
  cytotoxicity (cell viability, MTT): none of these three treatments were cytotoxic
[2]; 2 nM Everolimus, 5 nM β-amyloid(1-42), FIG. 2
  cytotoxicity (cell viability, MTT): none of these three treatments were cytotoxic
